In test [1] the target is T1, TYK2 (JH2domain-pseudokinase) (Homo sapiens, UniProt P29597).
T1 construct: TYK2 (JH2domain-pseudokinase)-tagged T7 phage strains were prepared in an E. coli host derived from the BL21 strain; made in house; host or cells: E. coli BL21-derived host (T7 phage) or HEK-293 cells
The test can be described thus: TYK2 JH2 domain binding assay (KINOMEscan). In outline:
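Kd values come from nonlinear least-squares fits of 11-point 3-fold dilutions (mostly 30,000 nM top, lowered when Kd fell below 0.5 nM). Test compound competed with bead-bound biotinylated ligand for qPCR-tagged TYK2 pseudokinase (JH2) domain, shaken 1 h at room temperature, with about 1% final DMSO.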

Test [2] has as its system STAT1/3 through TYK2/JAK1. The test is described as follows: IFNa induced STAT phosphorylation in HEK293 cells (SIE-bla reporter gene). The class given is cell-based. The conditions noted are these: HEK293T-sie-bla cells, IFNa at EC80, 4 hours, read-out: Inhibition of IFNa induced STAT phosphorylation HEK293 cells IC50. Summed up: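 Read-out was FRET from a β-lactamase reporter under a SIE promoter in HEK293T cells, with substrate added after a 4 h, 37°C co-incubation of compound and EC80 IFNa and left overnight in the dark. Compounds ran as 10-point 1/5 dilutions at 0.1% final DMSO; four-parameter log fit gave IC50.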
(In general: A reporter such as luciferase makes a cellular process visible.)

The record followed here is patent publication EP4206196A1, “PYRIMIDINE SUBSTITUTED DERIVATIVES AS TYK2 INHIBITORS” (Almirall S.A., priority 2021, dated 2023).

Where two headings read alike, the source gives them in different places.

T1 sequence (P29597 589-875 limits assumed): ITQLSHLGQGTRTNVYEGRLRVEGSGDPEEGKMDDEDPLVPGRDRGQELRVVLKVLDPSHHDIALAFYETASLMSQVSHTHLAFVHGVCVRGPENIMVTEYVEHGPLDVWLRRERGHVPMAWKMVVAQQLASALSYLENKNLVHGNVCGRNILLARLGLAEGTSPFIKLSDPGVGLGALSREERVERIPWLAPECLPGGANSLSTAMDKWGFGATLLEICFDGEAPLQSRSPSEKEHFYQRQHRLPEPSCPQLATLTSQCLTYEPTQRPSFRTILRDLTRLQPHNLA

As for `Cc1cc(Nc2cc(Nc3ncc(-c4c(C)nn(C)c4C)cc3N(C)S(C)(=O)=O)ncn2)nc(C)n1` [Example 88, N-[2-[[6-[(2,6-dimethylpyrimidin-4-yl)amino]pyrimidin-4-yl]amino]-5-(1,3,5-trimethylpyrazol-4-yl)-3-pyridyl]-N-methyl-methanesulfonamide], the Kd (as a rule, a measure of binding affinity in units of concentration) in test [1] is < 0.2 nM. Also, in test [2] (Homo sapiens, HEK293), the IC50 – broadly, the concentration needed to halve the response being measured – lay in the range of 10 to 100 nM.

In test [1], `COc1c(Nc2cc(Nc3cc(C)nc(C)n3)ncn2)ccc(C)c1-c1ncn(C)n1` [Example 63, 6-N-(2,6-dimethylpyrimidin-4-yl)-4-N-[2-methoxy-4-methyl-3-(1-methyl-1,2,4-triazol-3-yl)phenyl]pyrimidine-4,6-diamine] had a Kd of 0.2 to 1 nM. In test [2] (Homo sapiens, HEK293), the IC50 was 10 to 100 nM.

Regarding `Cc1c(-c2cnc(Nc3cc(Nc4ccc(F)cn4)ncn3)c(S(C)(=O)=O)c2)cnn1C` [Example 152, N4-[5-(1,5-dimethylpyrazol-4-yl)-3-methylsulfonyl-2-pyridyl]-N6-(5-fluoro-2-pyridyl)pyrimidine-4,6-diamine], the Kd in test [1] was < 0.2 nM. For the same compound, in test [2] (Homo sapiens, HEK293), the IC50 was < 10 nM.

Compound `COc1c(Nc2cc(Nc3cc(C)nc(C)n3)ncn2)ccc(-c2ncn(C)n2)c1C` [Example 83, N6-(2,6-dimethylpyrimidin-4-yl)-N4-[2-methoxy-3-methyl-4-(1-methyl-1,2,4-triazol-3-yl)phenyl]pyrimidine-4,6-diamine] showed a Kd in test [1] of 1 to 10 nM. Further, the IC50 in test [2] (Homo sapiens, HEK293) is > 1000 nM.

Take `Cc1cc(Nc2cc(Nc3ncc(C4CCCCO4)cc3N(C)S(C)(=O)=O)ncn2)nc(C)n1` (stereo not shown) [Example 167, N-[2-[[6-[(2,6-dimethylpyrimidin-4-yl)amino]pyrimidin-4-yl]amino]-5-tetrahydropyran-2-yl-3-pyridyl]-N-methyl-methanesulfonamide]: the Kd in test [1] was < 0.2 nM. Besides, the IC50 in test [2] (Homo sapiens, HEK293) is < 10 nM.

With `COCc1ccc(Nc2cc(Nc3cc(C)nc(C)n3)ncn2)c(N(C)S(C)(=O)=O)c1` [Example 115, N-[2-[[6-[(2,6-dimethylpyrimidin-4-yl)amino]pyrimidin-4-yl]amino]-5-(methoxymethyl)phenyl]-N-methyl-methanesulfonamide], the Kd in test [1] was < 0.2 nM. The IC50 in test [2] (Homo sapiens, HEK293) was < 10 nM.

For `Cc1cc(Nc2cc(Nc3ncc(C4CCOCC4)cc3N(C)S(C)(=O)=O)ncn2)nc(C)n1` [Example 157, N-[2-[[6-[(2,6-dimethylpyrimidin-4-yl)amino]pyrimidin-4-yl]amino]-5-(oxan-4-yl)pyridin-3-yl]-N-methylmethanesulfonamide], the Kd in test [1] lay in the range of 0.2 to 1 nM. Besides, in test [2] (Homo sapiens, HEK293), the IC50 was in the range of 10 to 100 nM.

As to `Cc1cc(Nc2cc(Nc3ccc(-c4nc(C)n(C)n4)cc3N(C)S(C)(=O)=O)ncn2)nc(C)n1` [Example 97, N-[2-[[6-[(2,6-dimethylpyrimidin-4-yl)amino]pyrimidin-4-yl]amino]-5-(1,5-dimethyl-1,2,4-triazol-3-yl)phenyl]-N-methyl-methanesulfonamide], in test [1], the Kd was < 0.2 nM. In addition, in test [2] (Homo sapiens, HEK293), the IC50 was in the range of 10 to 100 nM.

In the case of `Cc1cc(Nc2cc(Nc3ccc(C4CCNC4)cc3N(C)S(C)(=O)=O)ncn2)nc(C)n1` (stereo not shown) [Example 110, N-[2-[[6-[(2,6-dimethylpyrimidin-4-yl)amino]pyrimidin-4-yl]amino]-5-pyrrolidin-3-yl-phenyl]-N-methyl-methanesulfonamide], the Kd in test [1] was in the range of 1 to 10 nM. In addition, the IC50 in test [2] (Homo sapiens, HEK293) was 100 to 1000 nM.

Take `Cc1cc(Nc2cc(Nc3ccc(-c4nc(C)nn4C)cc3N(C)S(C)(=O)=O)ncn2)nc(C)n1` [Example 99, N-[2-[[6-[(2,6-dimethylpyrimidin-4-yl)amino]pyrimidin-4-yl]amino]-5-(2,5-dimethyl-1,2,4-triazol-3-yl)phenyl]-N-methyl-methanesulfonamide]: the Kd in test [1] lay in the range of 0.2 to 1 nM. The IC50 in test [2] (Homo sapiens, HEK293) fell in the range of 10 to 100 nM.

In test [1], `Cc1cc(Nc2cc(Nc3c(F)cc(-c4cnn(C)c4C)cc3S(C)(=O)=O)ncn2)nc(C)n1` [Example 96, N4-[4-(1,5-dimethylpyrazol-4-yl)-2-fluoro-6-methylsulfonyl-phenyl]-N6-(2,6-dimethylpyrimidin-4-yl)pyrimidine-4,6-diamine] came in with a Kd of 1 to 10 nM. For the same compound, the IC50 in test [2] (Homo sapiens, HEK293) was 100 to 1000 nM.

Take `COc1cc(C(=O)N2CCCC2)ccc1Nc1cc(Nc2cc(C)nc(C)n2)ncn1` [Example 78, [4-[[6-[(2,6-dimethylpyrimidin-4-yl)amino]pyrimidin-4-yl]amino]-3-methoxy-phenyl]-pyrrolidin-1-yl-methanone]: in test [1], the Kd was 1 to 10 nM. In addition, the IC50 in test [2] (Homo sapiens, HEK293) is > 1000 nM.

On to `COc1c(Nc2cc(Nc3cc(C)nc(C)n3)ncn2)cccc1-c1ncn(CC2CC(F)(F)C2)n1` [Example 53, N6-[3-[1-[(3,3-difluorocyclobutyl)methyl]-1,2,4-triazol-3-yl]-2-methoxyphenyl]-N4-(2,6-dimethylpyrimidin-4-yl)pyrimidine-4,6-diamine], for which, in test [1], the Kd was in the range of 0.2 to 1 nM. Besides, in test [2] (Homo sapiens, HEK293), the IC50 lay in the range of 100 to 1000 nM.

`Cc1cc(Nc2cc(Nc3ncc(-c4cn(C)cn4)cc3N(C)S(C)(=O)=O)ncn2)nc(C)n1` [Example 147, N-[2-[[6-[(2,6-dimethylpyrimidin-4-yl)amino]pyrimidin-4-yl]amino]-5-(1-methylimidazol-4-yl)-3-pyridyl]-N-methyl-methanesulfonamide]: the Kd in test [1] was < 0.2 nM. The IC50 in test [2] (Homo sapiens, HEK293) lay in the range of 10 to 100 nM.

As to `COc1c(Nc2cc(Nc3cc(C)ncn3)ncn2)cccc1-c1ncn(C)n1` [Example 33, N6-[2-methoxy-3-(1-methyl-1,2,4-triazol-3-yl)phenyl]-N4-(6-methylpyrimidin-4-yl)pyrimidine-4,6-diamine], the Kd in test [1] is < 0.2 nM. The 50% inhibitory concentration (IC50) in test [2] (Homo sapiens, HEK293) lay within 10 to 100 nM.

`COc1c(C)cccc1Nc1cc(NC(=O)C2CC2)ncn1` [Example 3, N-[6-(2-methoxy-3-methyl-anilino)pyrimidin-4-yl]cyclopropanecarboxamide] displayed a Kd in test [1] of 1 to 10 nM. Also, the IC50 in test [2] (Homo sapiens, HEK293) is > 1000 nM.

In test [1], “N4-(2,6-dimethylpyrimidin-4-yl)-N6-(3-methoxy-5-tetrahydropyran-2-yl-2-pyridyl)pyrimidine-4,6-diamine [Example 166]” yielded a Kd of 1 to 10 nM. Besides, the IC50 in test [2] was 100 to 1000 nM.

As to “N-[5-(1,5-dimethylpyrazol-4-yl)-2-[[6-[(2,6-dimethylpyrimidin-4-yl)amino]pyrimidin-4-yl]amino]-3-pyridyl]-N-(trideuteriomethyl)methanesulfonamide [Example 133]”, in test [1], the Kd is < 0.2 nM. Further, the IC50 in test [2] was < 10 nM.

In the case of `COc1c(Nc2cc(Nc3cc(C)ncn3)ncn2)cc(C)cc1-c1ncn(C)n1` [Example 104, 4-N-[2-methoxy-5-methyl-3-(1-methyl-1,2,4-triazol-3-yl)phenyl]-6-N-(6-methylpyrimidin-4-yl)pyrimidine-4,6-diamine], the Kd in test [1] lay in the range of 0.2 to 1 nM. For the same compound, the IC50 in test [2] (Homo sapiens, HEK293) was 100 to 1000 nM.

Consider `COc1cc(-c2cn(C)cn2)ccc1Nc1cc(Nc2cc(C)nc(C)n2)ncn1` [Example 90, N4-(2,6-dimethylpyrimidin-4-yl)-N6-[2-methoxy-4-(1-methylimidazol-4-yl)phenyl]pyrimidine-4,6-diamine], for which the Kd in test [1] is 1 to 10 nM. Also, in test [2] (Homo sapiens, HEK293), the IC50 was > 1000 nM.

For the compound `Cc1cc(Nc2cc(Nc3ncc(-c4nccn4C)cc3N(C)S(C)(=O)=O)ncn2)nc(C)n1` [Example 128, N-[2-[[6-[(2,6-dimethylpyrimidin-4-yl)amino]pyrimidin-4-yl]amino]-5-(1-methylimidazol-2-yl)-3-pyridyl]-N-methyl-methanesulfonamide], the Kd in test [1] is < 0.2 nM. Moreover, the IC50 in test [2] (Homo sapiens, HEK293) is 100 to 1000 nM.

As for `Cc1cc(Nc2cc(Nc3ncc(-c4nc(C)n(C)n4)cc3N(C)S(C)(=O)=O)ncn2)ncn1` [Example 154, N-[5-(1,5-dimethyl-1,2,4-triazol-3-yl)-2-[[6-[(6-methylpyrimidin-4-yl)amino]pyrimidin-4-yl]amino]-3-pyridyl]-N-methyl-methanesulfonamide], the Kd in test [1] was < 0.2 nM. The IC50 in test [2] (Homo sapiens, HEK293) lay within 10 to 100 nM.

In the case of `COc1c(Nc2cc(Nc3ccc(F)cn3)ncn2)cccc1-c1ncn(C)n1` [Example 65, N4-(5-fluoro-2-pyridyl)-N6-[2-methoxy-3-(1-methyl-1,2,4-triazol-3-yl)phenyl]pyrimidine-4,6-diamine], the Kd in test [1] was 0.2 to 1 nM. Also, the IC50 in test [2] (Homo sapiens, HEK293) fell in the range of 10 to 100 nM.

Take `Cc1cc(Nc2cc(Nc3ccc(C4CCCO4)cc3N(C)S(C)(=O)=O)ncn2)nc(C)n1` (stereo not shown) [Example 114, N-[2-[[6-[(2,6-dimethylpyrimidin-4-yl)amino]pyrimidin-4-yl]amino]-5-tetrahydrofuran-2-yl-phenyl]-N-methyl-methanesulfonamide]: in test [1], the Kd is < 0.2 nM. Moreover, the IC50 in test [2] (Homo sapiens, HEK293) is < 10 nM.

Regarding `Cc1cc(Nc2cc(Nc3ncc(-c4ncn(C)n4)cc3N(C)S(C)(=O)=O)ncn2)nc(C)n1` [Example 123, N-[2-[[6-[(2,6-dimethylpyrimidin-4-yl)amino]pyrimidin-4-yl]amino]-5-(1-methyl-1,2,4-triazol-3-yl)-3-pyridyl]-N-methyl-methanesulfonamide], the Kd in test [1] is 1 to 10 nM. For the same compound, the IC50 in test [2] (Homo sapiens, HEK293) was in the range of 10 to 100 nM.

In the case of `Cc1c(-c2cnc(Nc3cc(NC(=O)[C@H]4C[C@H]4F)ncn3)c(N(C)S(C)(=O)=O)c2)cnn1C` [Example 160, (1R,2R)-N-[6-[[5-(1,5-dimethylpyrazol-4-yl)-3-[methyl(methylsulfonyl)amino]-2-pyridyl]amino]pyrimidin-4-yl]-2-fluoro-cyclopropanecarboxamide], in test [1], the Kd is < 0.2 nM. Moreover, the IC50 in test [2] (Homo sapiens, HEK293) lay within 10 to 100 nM.
